Data on 3 substances can be found in patent publication US20030110518A1, “Melanocortin-5 receptor sequences and uses thereof” (priority 2001, published 2003).

In experiment [1] the target is T1, canine MC5R (Canis lupus familiaris, UniProt A0A8I3MI44). The experiment in a line: Whole cell binding assay with radiolabeled NDP-MSH in transfected HEK293a cells. Set-up: expressed in transfected cells; host or cells: HEK293 / HEK293a. As to conditions: 75 pM label, 37° C., 1 hour; clones nos. 9 and 13; FIG. 5.
T1 sequence (A0A8I3MI44 1-325): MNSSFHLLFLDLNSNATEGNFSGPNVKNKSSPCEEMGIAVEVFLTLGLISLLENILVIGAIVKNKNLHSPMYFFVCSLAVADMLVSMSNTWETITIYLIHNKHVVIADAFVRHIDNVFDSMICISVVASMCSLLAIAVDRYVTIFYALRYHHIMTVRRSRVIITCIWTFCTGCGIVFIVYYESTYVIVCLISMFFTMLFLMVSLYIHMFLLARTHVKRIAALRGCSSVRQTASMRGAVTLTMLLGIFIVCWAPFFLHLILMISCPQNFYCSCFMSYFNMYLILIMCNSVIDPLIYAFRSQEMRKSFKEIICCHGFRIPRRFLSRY
Protocol: Transient transfection & Whole Cell Binding Assay. A 50% confluent cell culture plate containing HEK293 cells is used for transient transfection with various vector constructs using Fugene 6 as a transfection carrier (4 μl Fugene 6 per μg plasmid DNA). Cells are harvested 48 hours post transfection using Sigma dissociation buffer (Sigma Chemical Co., St. Louis, Mo.), then centrifuged and resuspended in binding buffer (50 mM HEPES, 5 mM MgCl, 0.1% BSA, pH 7.5, containing a Sigma P-8340 protease inhibitor cocktail). The resuspended cell population is counted using a hemacytometer. A cell volume titration is performed by pipetting varying volumes in triplicate into tubes. Either buffer or excess cold NDP-MSH (2 μM final conc.) is added. Excess cold NDP-MSH is used to ascertain non-specific binding. Radiolabeled (^125I) NDP-MSH is added such that the final concentration is 75 pM. The reaction is incubated at 37° C. for 1 hour, and then the reaction mixture is centrifuged at 5000×g for 10 minutes. The supernatant solution is removed by aspiration and radioisotope remaining with the cell pellet is counted in a gamma counter. FIG. 5 discloses the specific NDP-MSH binding to five canine MC5R/HEK293a cells (shown as “C5#_” in FIG. 5).
Experiment [2] addresses canine melanocortin 5 receptor (canine). The experiment in a line: cell-based or functional assay.
The target of experiment [3] is T1, canine MC5R.
Protocol: The following example discloses the measurement of canine MC5R-mediated cAMP accumulation in response to α-MSH stimulation.
As described above, MC5R, when activated by its agonist ligand, stimulates adenylyl cyclase to form cAMP. A commercially available kit (Adenylyl Cyclase Activation Flashplate Assay, NEN® Life Science Products, Inc., Boston, Mass., Cat # SMP004, SMP004A) is used to measure cAMP accumulation. An MC5R/HEK293 cell line is prepared. Cells are harvested using Sigma dissociation buffer, washed, centrifuged and resuspended in stimulation buffer, which is provided in the kit (Sigma Chemical Co., St. Louis, Mo.). The suspended cells are counted using a hemacytometer. Cells are pelleted again by centrifugation and resuspended with stimulation buffer to the desired concentration (0.5-5×10^6 cells per ml). A cell volume titration is performed by transferring varying volumes in triplicate into wells. For each cell concentration tested, a full agonist dose titration is performed, including a negative control. The agonists employed include [Nle^4,D-Phe^7]-α-MSH(NDP-MSH) and α-MSH. […]
The duration of stimulation by agonist is also varied (15-45 minutes). […] Stimulation of MC5R is determined by scillintation counting in a Wallac MICROBETA® scintillation counter (EG&G Wallac, Gaithersburg, Md.).

Chain of canine melanocortin 5 receptor (canine) (chain, as listed by the source limits assumed): as the sequence (A0A8I3MI44 1-325) above, with H100Y, G314A counted along it

In the case of [Nle4,D-Phe7]-α-MSH [NDP-MSH], the “specific binding of radiolabeled (125I) NDP-MSH to canine MC5R/HEK293a cells” value in experiment [1] is “high level of specific binding”. In experiment [2], “α-melanocyte stimulating hormone (from UniProt P01189 138-150) (peptide)” had an EC50 of cAMP accumulation (Adenylyl Cyclase Activation Flashplate Assay), clone C9 of 5 nM and a fold stimulation of cAMP accumulation of less than 8 fold. In the case of “α-melanocyte stimulating hormone [α-MSH]”, the “sensitivity of MC5R clones to α-MSH compared with a MC4R clone” value in experiment [3] (both MC5R clones versus a MC4R clone) is listed as “more sensitive”. Also, the “stimulation of cAMP accumulation with α-MSH” value in experiment [3] (three clones, FIG. 6) is no more than 8 fold.
